Read-outs that look alike come from different tables or passages of the source.
Legend:
[1] = molecular target: human Arginine Vasopressin Receptor 1a (AVPR1a) (Homo sapiens (Human), UniProt P37288); test: Vasopressin V1A receptor antagonist assay (AVP-evoked calcium, FLIPR, CHO-AVPR1a cells); assay type: cell-based
In short: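 CHO cells expressing human AVPR1a, Calcium-6 dye loaded 60-90 min, preincubated with compound 15 min at 37° C., then challenged with AVP at its daily-determined EC80. FLIPR fluorescence; 10-point 1:3 series from 3 μM, duplicates.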

[2] = molecular target: human Arginine Vasopressin Receptor 1b (AVPR1b) (Homo sapiens (Human), UniProt P47901); test: Vasopressin V1B receptor antagonist assay (AVP-evoked calcium, FLIPR, CHO-AVPR1b cells); assay type: cell-based
Experimental: The purpose of the assay is to determine the inhibitory effect of synthesized compounds on the Vasopressin V1b receptor. The assay was performed in Chinese Hamster Ovary (CHO) cells expressing the human Arginine Vasopressin Receptor 1b (AVPR1b). Arginine Vasopressin (AVP) evokes an increase in intracellular calcium in CHO-AVPR1b cells which is measured in a fluorescence assay on the FLIPR^TETRA using calcium sensitive dyes. Test compounds were assessed for their ability to affect the magnitude of the response to AVP, with antagonists showing a concentration-dependent reduction in the AVP-mediated fluorescence.
CHO-AVPR1b cells were maintained in routine culture in T175 Flasks at 37° C., 5% CO2. The growth medium consisted of Ham's F12 media supplemented with 10% v/v fetal bovine serum, 1× non-essential amino acids, and 0.4 mg/ml Geneticin G418.
Cells were harvested from T175 flasks when they were 80-90% confluent by first washing the cell monolayer with PBS and then dissociated using trypsin 0.05%/EDTA (3 mL for a T175 Flask). The flasks were incubated at room temperature until the cells detached. To the cell suspension, 10 ml of growth media was added and the cell density determined using the Vi-Cell automated cell counter. The cells were spun at 1000 rpm for 3 minutes, then the supernatant was carefully removed and discarded. The cell pellet was re-suspended at 6.0e^5 cells/ml in growth media. 25 μL of cells in growth media was dispensed into each well (15,000 cells per well) of a poly-D-lysine coated black, clear bottomed, 384-well plate. The plates were incubated at 37° C., 5% CO2 overnight.
At the start of each assay day, the potency of AVP is assessed and an EC80 concentration determined for subsequent compound profiling. Assays were performed using a two-step addition protocol on the FLIPR^TETRA; first addition of 5 μl of control or test compound at 10× final in assay buffer with 15 min incubation at 37° C., 5% CO2 followed by 10 μl of AVP at 6× final concentration in assay buffer. Changes in fluorescence were monitored for 3 min after both additions on the FLIPR^TETRA using 470-495 nm excitation and 515-575 nm emission wavelengths. The assay buffer consisted of HBSS (+Ca/+Mg) supplemented with 20 mM HEPES, and for the preparation of the AVP agonist only, 0.1% w/v bovine serum albumin. The assay was initiated by the removal of growth media from the cells and replacement with 45 μl of Calcium-6 dye (Molecular Devices) prepared at 1× in assay buffer. Cells were loaded with dye for 60-90 min at 37° C., 5% CO2 before initiation of the FLIPR^TETRA protocol. […] For compound profiling, test compounds were first serially diluted in DMSO (10-point curve, 1:3 dilutions) then diluted 33.3-fold in assay buffer prior to addition to the dye loaded cells on the FLIPR^TETRA. At the end of the incubation period 10 μl of AVP in assay buffer containing 0.1% BSA was added at the previously determined EC80 concentration.
In-plate controls for the assay include a Nelivaptan concentration-response curve as the reference V1b antagonist and an AVP concentration-response curve to confirm the reproducibility of the EC80 used for the compound challenge.

[3] = molecular target: human Oxytocin Receptor (hOTR) (Homo sapiens (Human), UniProt P30559); test: Oxytocin receptor antagonist assay (oxytocin-evoked calcium, FLIPR, CHEM-1-hOTR cells); assay type: cell-based; conditions: read-out: OT IC50
Experimental: This assay was performed in CHEM-1 cells expressing the human Oxytocin Receptor (hOTR) to determine the inhibitory effect of the compounds of the invention on the human Oxytocin receptor. Oxytocin evokes an increase in intracellular calcium in CHEM-1-hOTR cells which is measured in a fluorescence assay on the FLIPR^TETRA using calcium sensitive dyes. Test compounds were assessed for their ability to affect the magnitude of the response to oxytocin, with antagonists showing a concentration-dependent reduction in the oxytocin-mediated fluorescence.
CHEM-1-hOTR ready was used to assay frozen cells (Eurofins #HTS090RTA) which are supplied with a proprietary Media Component.
Cells were thawed in a 37° C. water bath and diluted with the supplied Media Component to a final volume of 10 ml. The cell suspension was centrifuged at 1000 rpm for 3 min at room temperature and the supernatant was discarded. The cell pellet was resuspended in Media Component (10.5 ml) and the cells (25 μL) were dispensed into a poly-D-lysine coated black, clear bottomed, 384-well plate. The plates were incubated overnight at 37° C., 5% CO2.
At the start of each assay day the potency of oxytocin was assessed and an EC80 concentration was determined for subsequent compound profiling. Assays were performed using a two-step addition protocol on the FLIPR^TETRA; first addition of 5 μl of control or test compound at 10× final in assay buffer with 15 min incubation at 37° C., 5% CO2 followed by 10 μl of oxytocin at 6× final concentration in assay buffer. Changes in fluorescence were monitored for 3 min after both additions on the FLIPR^TETRA using 470-495 nm excitation and 515-575 nm emission wavelengths. The assay buffer consisted of HBSS (+Ca/+Mg) supplemented with 20 mM HEPES, and for the preparation of the oxytocin agonist only, 0.1% w/v bovine serum albumin. The assay was initiated by the removal of growth media from the cells and replaced with 45 μl of Calcium-6 dye (Molecular Devices) prepared at 1× in assay buffer. Cells were loaded with dye for 60-90 min at 37° C., 5% CO2 before initiation of the FLIPR^TETRA protocol. […] For compound profiling, test compounds were first serially diluted in DMSO (10-point curve, 1:3 dilutions) then diluted 33.3-fold in assay buffer prior to addition to the dye loaded cells on the FLIPR^TETRA. At the end of the incubation period 10 μl of oxytocin in assay buffer containing 0.1% BSA was added at the previously determined EC80 concentration.
In-plate controls for the assay include a L-368,899 concentration-response curve as the reference OTR antagonist and an oxytocin concentration-response curve to confirm the reproducibility of the EC80 used for the compound challenge.

[4] = tested on: MDR1 (P-glycoprotein); test: MDR1-MDCK effective efflux assay (Transwell, 10 μM, 1 hour), MDR1-MDCK cells; assay type: in vitro ADME; conditions: dog, MDCK-MDR1, pH 7.4, MDR1-MDCK cells, apical to basolateral (A>B), 10 μM, 1 hour; read-out: Papp AB MDR1
Experimental: (§1) The MDR1-MDCK effective efflux assay was performed as described in the BioFocus Standard Operating Procedure, ADME-SOP-56. Both wild-type (WT) and MDR1-MDCK cells (Solvo Biotechnology) were seeded onto 24-well Transwell plates at 2.35×10^5 cells per well and used in confluent monolayers after a 3 day culture at 37° C. under 5% CO2. For both cell types, test and control compounds (propranolol, vinblastine) were added (10 μM, 0.1% DMSO final, n=2) to donor compartments of the Transwell plate assembly in assay buffer (Hanks balanced salt solution supplemented with 25 mM HEPES, adjusted to pH 7.4) for both apical to basolateral (A>B) and basolateral to apical (B>A) measurements. Incubations were performed at 37° C., with samples removed from both donor and acceptor chambers at T=0 and 1 hour and compound analysed by mass spectrometry (LC-MS/MS) including an analytical internal standard.
(§2) Where V is the volume of each Transwell compartment (apical 125 basolateral 600 and concentrations are the relative MS responses for compound (normalized to internal standard) in the donor chamber before incubation and acceptor chamber at the end of the incubation. Area=area of cells exposed for drug transfer (0.33 cm2).
(§3) Efflux ratios (Papp B>A/Papp A>B) were calculated for each compound from the mean Papp values in each direction for both wild-type and MDR1-MDCK cells.
(§4) In order to confirm the involvement of MDR1 in any efflux seen, an “effective efflux ratio” (EER) was calculated by comparing compound efflux ratios (ER) in the two cell types, i.e. EER=ER(MDR1−MDCK)/ER(wild-type MDCK)
(§5) This ratio illustrates the effect of the over-expressed MDR1 normalised for the background movement of compound through the wild-type cells.
(§6) Lucifer Yellow (LY) was added to the apical buffer in all wells to assess viability of the cell layer. Compound recovery from the wells was determined from MS responses (normalized to internal standard) in donor and acceptor chambers at the end of incubation compared to response in the donor chamber pre-incubation.

[5] = MDR1-MDCK effective efflux assay (Transwell, 10 μM, 1 hour), wild-type MDCK cells; assay type: in vitro ADME; conditions: dog, MDCK, pH 7.4, wild-type MDCK cells, apical to basolateral (A>B), 10 μM, 1 hour; read-out: Papp AB WT
Experimental: as §1, §2, §3, §4, §5, §6

[6] = molecular target: human Arginine Vasopressin Receptor V2 (AVPR2) (Homo sapiens (Human), UniProt P30518); test: Vasopressin V2 receptor antagonist assay (cAMP TR-FRET, 1321N1 cells); assay type: cell-based
Experimental: The purpose of the assay was to determine the inhibitory effect of synthesized compounds on the Vasopressin receptor 2. […] Arginine Vasopressin (AVP) evokes an increase in intracellular cAMP in these cells which is measured in a TR-FRET assay using a Europium cAMP tracer and ULight labelled antibody reagents contained in a LANCE Ultra cAMP kit (Perkin Elmer #TRF0263). […] Test compounds were assessed for their ability to affect the magnitude of the response to AVP, with antagonists showing a concentration-dependent decrease in the AVP-mediated reduction in TR-FRET signal.
cAMPZen V2 assay ready cells were thawed at 37° C. and resuspended directly from frozen in 9 ml growth medium consisting of DMEM supplemented with 10% v/v fetal bovine serum, 1× non-essential amino acids, and 1 mM sodium pyruvate. Cells were spun at 1000 rpm for 3 minutes and the supernatant was carefully removed and discarded. The pellet was resuspended in 5 ml stimulation buffer and the cell density determined using the Vi-Cell automated cell counter. The cell suspension was diluted to a 0.2×10^6/ml suspension ready for plating. […] Stimulation buffer consisted of HBSS (+Ca/+Mg) supplemented with 5 mM HEPES, 0.1% BSA stabiliser and 0.5 mM IBMX.
At the start of each assay day the potency of AVP was assessed and an EC80 concentration determined for subsequent compound profiling. Assays were performed by first an addition of 2.5 μl of control or test compound at 4× final concentration in stimulation buffer followed by 2.5 μl of AVP at 4× final concentration in stimulation buffer. After a 1 hour reaction, detection reagents were added by first an addition of 5 μl EU-cAMP tracer, followed by 5 μl ULight-anti-cAMP both diluted as per the manufacturer's instructions. […] For compound profiling, test compounds were dispensed by the Labcyte Echo (10-point curve, 1:3 dilutions) in a target 0.1 μl volume then diluted 750-fold in stimulation buffer containing 3% DMSO prior to addition to the cells. At the end of the incubation period, 2.5 μl of AVP in stimulation buffer was added at the previously determined EC80 concentration.

human Oxytocin Receptor (hOTR), sequence (P30559 whole entry): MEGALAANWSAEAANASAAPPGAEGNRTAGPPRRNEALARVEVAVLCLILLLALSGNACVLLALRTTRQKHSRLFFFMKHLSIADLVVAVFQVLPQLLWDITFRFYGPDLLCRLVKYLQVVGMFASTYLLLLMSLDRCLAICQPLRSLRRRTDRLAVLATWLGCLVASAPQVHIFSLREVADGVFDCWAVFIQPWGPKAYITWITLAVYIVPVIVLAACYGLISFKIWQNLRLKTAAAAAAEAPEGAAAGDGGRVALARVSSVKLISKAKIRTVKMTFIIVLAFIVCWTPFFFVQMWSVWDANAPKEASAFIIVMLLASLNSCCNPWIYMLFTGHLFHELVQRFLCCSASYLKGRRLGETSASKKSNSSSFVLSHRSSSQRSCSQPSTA
human Arginine Vasopressin Receptor 1b (AVPR1b), sequence (P47901 whole entry): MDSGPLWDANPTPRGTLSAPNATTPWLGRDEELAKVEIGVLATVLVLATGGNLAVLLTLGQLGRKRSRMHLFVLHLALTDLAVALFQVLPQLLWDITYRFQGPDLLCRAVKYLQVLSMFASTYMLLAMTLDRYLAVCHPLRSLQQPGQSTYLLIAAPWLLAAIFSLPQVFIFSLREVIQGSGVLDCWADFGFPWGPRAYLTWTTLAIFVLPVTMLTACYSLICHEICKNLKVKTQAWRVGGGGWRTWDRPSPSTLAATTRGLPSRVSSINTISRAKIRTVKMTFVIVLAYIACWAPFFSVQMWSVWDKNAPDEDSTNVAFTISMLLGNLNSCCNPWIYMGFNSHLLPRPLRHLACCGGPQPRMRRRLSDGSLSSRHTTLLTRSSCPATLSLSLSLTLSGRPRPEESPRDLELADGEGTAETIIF
human Arginine Vasopressin Receptor 1a (AVPR1a), sequence (P37288 whole entry): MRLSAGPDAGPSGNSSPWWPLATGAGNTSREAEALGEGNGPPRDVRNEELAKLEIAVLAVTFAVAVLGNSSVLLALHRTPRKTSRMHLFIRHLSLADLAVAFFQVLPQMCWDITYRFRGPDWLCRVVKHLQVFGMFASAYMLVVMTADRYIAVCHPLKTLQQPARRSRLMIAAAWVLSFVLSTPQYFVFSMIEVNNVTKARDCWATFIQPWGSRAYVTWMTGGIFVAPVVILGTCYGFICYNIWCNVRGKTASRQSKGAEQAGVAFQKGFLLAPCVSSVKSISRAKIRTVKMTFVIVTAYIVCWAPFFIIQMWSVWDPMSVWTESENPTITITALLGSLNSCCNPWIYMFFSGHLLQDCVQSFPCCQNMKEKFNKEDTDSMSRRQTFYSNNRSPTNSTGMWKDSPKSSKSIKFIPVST
human Arginine Vasopressin Receptor V2 (AVPR2), sequence (P30518 whole entry): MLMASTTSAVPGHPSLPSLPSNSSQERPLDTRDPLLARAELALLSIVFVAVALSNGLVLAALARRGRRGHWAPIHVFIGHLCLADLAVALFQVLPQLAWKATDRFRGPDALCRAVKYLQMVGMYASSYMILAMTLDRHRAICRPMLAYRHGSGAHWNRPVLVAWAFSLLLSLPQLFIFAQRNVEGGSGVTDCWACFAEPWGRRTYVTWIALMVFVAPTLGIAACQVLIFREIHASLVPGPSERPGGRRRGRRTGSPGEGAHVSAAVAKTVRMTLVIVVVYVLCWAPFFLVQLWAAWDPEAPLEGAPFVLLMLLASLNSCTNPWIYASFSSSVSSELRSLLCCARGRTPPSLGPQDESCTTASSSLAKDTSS

Structure (SMILES) | IC50 ([1]; read-out: V1a IC50) [nM] | IC50 [2] [nM] | IC50 [3] [nM] | Papp A→B at 1 h, 10 μM [4] [×10⁻⁶ cm/s] | Papp A→B at 1 h, 10 μM [5] [×10⁻⁶ cm/s] | IC50 [1] [nM] | IC50 [6] [nM]
CC1c2nnc(C3CC4(C3)CN(c3ncccn3)C4)n2-c2ccc(Cl)cc2CN1C(=O)OC1(C)CC1 (single isomer, unassigned) [Cpd 205A] | < 100 | > 1000 | 500 to 1000 | – | – | – | –
CC1c2nnc(C3CC4(C3)CN(c3ncccn3)C4)n2-c2ccc(Cl)cc2CN1C(=O)OC1(C)CC1 (single isomer, unassigned) [Cpd 205B] | > 1000 | > 1000 | > 1000 | – | – | – | –
CC1c2nnc(C3CC4(C3)CN(c3ccc(F)cn3)C4)n2-c2ccc(Cl)cc2CN1C(=O)OC(C)(C)CF (single isomer, unassigned) [Cpd 206A] | < 100 | > 1000 | 100 to 500 | – | – | – | –
CC1c2nnc(C3CC4(C3)CN(c3ccc(F)cn3)C4)n2-c2ccc(Cl)cc2CN1C(=O)OC(C)(C)CF (single isomer, unassigned) [Cpd 206B] | 100 to 500 | > 1000 | > 1000 | – | – | – | –
COC(=O)N1Cc2cc(Cl)ccc2-n2c(nnc2C2CC3(C2)CN(c2cccc(C#N)n2)C3)C1 [compound 91, methyl 8-chloro-1-(2-(6-cyanopyridin-2-yl)-2-azaspiro[3.3]heptan-6-yl)-4H-benzo[f][1,2,4]triazolo[4,3-a][1,4]diazepine-5(6H)-carboxylate] | < 100 | – | 500 to 1000 | < 7 | > 20 | – | –
CC1c2nnc(C3CC4(C3)CN(c3ncccn3)C4)n2-c2ccc(Cl)cc2CN1C(=O)OC(C)(C)CF (stereo not shown) [compound 196] | < 100 | > 1000 | > 1000 | – | – | – | –
CCC1c2nnc(C3CC4(C3)CN(c3ccc(F)cn3)C4)n2-c2ccc(Cl)cc2CN1C(=O)OC (stereo not shown) [compound 197, methyl 8-chloro-4-ethyl-1-(2-(5-fluoropyridin-2-yl)-2-azaspiro[3.3]heptan-6-yl)-4H-benzo[f][1,2,4]triazolo[4,3-a][1,4]diazepine-5(6H)-carboxylate] | – | – | – | > 20 | > 20 | 100 to 500 | –
COC(=O)N1Cc2cc(Cl)ccc2-n2c(C3CC4(C3)CN(c3ncccn3)C4)nnc2C12CC2 [compound 199] | < 100 | > 1000 | > 1000 | – | – | – | –
O=C1OCC2c3nnc(C4CC5(C4)CN(c4ccc(F)cn4)C5)n3-c3ccc(Cl)cc3CN12 (stereo not shown) [compound 200, 7-chloro-3-(2-(5-fluoropyridin-2-yl)-2-azaspiro[3.3]heptan-6-yl)-13,13a-dihydro-9H,11H-benzo[e]oxazolo[3,4-a][1,2,4]triazolo[3,4-c][1,4]diazepin-11-one] | – | – | – | < 7 | > 20 | 100 to 500 | –
Cc1nc(N2CC3(CC(c4nnc5n4-c4ccc(Cl)cc4CN(C4CC4)C5)C3)C2)ccc1F [compound 229] | < 100 | – | 500 to 1000 | – | – | – | < 100

— patent US11186577B2, “Vasopressin receptor antagonists and products and methods related thereto” (BlackThorn Therapeutics, Inc., priority 2017, dated 2021)
